The values that follow come from patent US4395274A, “Microbicidal agent and its use” (Bayer Aktiengesellschaft, priority 1979, dated 1983).

Read-outs that look alike come from different tables or passages of the source.

The test system of one series is Aspergillus niger. Description: minimum inhibitory concentration (MIC) in agar culture media; synergism by Kull et al. The class given is cell-based. The note with it: for X (synergism index by Kull et al): X=1 additivity, X>1 antagonism, X<1 synergism. The method, then:
(§1) The MIC values of A and B are compared with the MIC values of mixtures A/B.
(§2) The synergism is determined according to the method described by Kull et al (F. C. Kull, P. C. Eismann, H. D. Sylvestrowicz, R. L. Mayer, Applied Microbiol. 9, 538 to 541, 1961). The following symbols apply here: [formula] X=1 denotes additivity X>1 denotes antagonism
(§3) Qa =concentration of compound A, which represents the MIC
(§4) Qb =concentration of compound B, which represents the MIC
(§5) QA =the amount of compound A in the concentration of A/B, which prevents the growth of microbes
(§6) QB =the amount of compound B in the concentration of A/B which prevents the growth of microbes.

The next series relates to Pullularia pullulans. Described as above. The class given is cell-based. The note with it: for X (synergism index by Kull et al): X=1 additivity, X>1 antagonism, X<1 synergism. As for the experimental part:
as §1, §2, §3, §4, §5, §6

The test system of a further series is Alternaria tenuis. The series is described as above. The class given is cell-based. The conditions noted are these: for X (synergism index by Kull et al): X=1 additivity, X>1 antagonism, X<1 synergism. As for the experimental part: as §1, §2, §3, §4, §5, §6
The subject of a further series is Trichoderma viride. Described as above. The note with it: for X (synergism index by Kull et al): X=1 additivity, X>1 antagonism, X<1 synergism. It is filed as cell-based. As for the experimental part: as §1, §2, §3, §4, §5, §6
In the next series the test system is Coniophora cerebella. The description is as above. The class given is cell-based. The conditions noted are these: for X (synergism index by Kull et al): X=1 additivity, X>1 antagonism, X<1 synergism. As for the experimental part:
as §1, §2, §3, §4, §5, §6

In another series the test system is Chaetomium globosum. The series is described as above. The class given is cell-based. The note with it: for X (synergism index by Kull et al): X=1 additivity, X>1 antagonism, X<1 synergism. As for the experimental part: as §1, §2, §3, §4, §5, §6
Another series relates to fungus. Description: paper production: pulp feeding system, losses of active compound, effluent and discharged air. The conditions noted are these: 0.5% by weight of paper added to the pulp. The method, then: (§7) Based on the weight of the paper (90 to 100 g/m^2) 0.5% of A/B=6/1 is homogeneously mixed under a pulp (density 1%, pH value 4.8) having the following composition:
If, however, as is customary, owing to the lack up until now of usable alternatives, 0.5% of sodium pentachlorophenolate (related to the weight of the paper) is added to the pulp, losses of active compound amounting to more than 50% occur (approx. 25% are found in the effluent and approx. 25% in the outgoing air).

The next series deals with rats. The note with it: comparison compound; cited from earlier work.
Series [1] has as its system Chaetomium globosum Kunze and Aspergillus niger. Description: mould resistance of soap-wrapping paper. The note with it: 0.5% by weight of paper added to pulp. The method, then:
as §7
The mould resistance and the antimicrobial activity of the soap-wrapping paper obtained in this manner is tested in the following way:
Circular paper test specimens (diameter 4 cm) are placed in a nutrient medium in Petri dishes, the medium having previously been infested with the test fungi Chaetomium globosum Kunze and Aspergillus niger.

The conditions of series [2]: as a formaldehyde depot substance; cited from earlier work.
The mark [3] stands for this setting: A differs between Example 1 and Example 6.

Take `COC(=O)Nc1nc2ccccc2[nH]1` [B, benzimidazolyl-methyl-carbamate]: the “QB (amount of compound B in the concentration of A/B which prevents the growth of microbes)” value in the series on Aspergillus niger is 2,5; in the series on Pullularia pullulans, 0,25; in the series with Alternaria tenuis, 5000; in the series on Trichoderma viride it was 2,5; in the series on Coniophora cerebella, 2000; with Chaetomium globosum, 0,4. For the same compound, the MIC with Aspergillus niger (Aspergillus niger, read-out: Qb (concentration of compound B, which represents the MIC)) is 2.5 mg/L; in the series with Aspergillus niger (agar culture media), 2,5 mg/l; with Pullularia pullulans (agar culture media) it was 0,25 mg/l; with Pullularia pullulans (read-out: Qb (concentration of compound B, which represents the MIC)) it was 0.25 mg/L; in the series on Alternaria tenuis (Alternaria alternata, read-out: Qb (concentration of compound B, which represents the MIC)), 5000 mg/L; in the series on Alternaria tenuis (agar culture media), 5000 mg/L. Also, the MIC in the series on Trichoderma viride (Trichoderma viride, read-out: Qb (concentration of compound B, which represents the MIC)) is 2.5 mg/L; with Trichoderma viride (agar culture media), 2,5 mg/l; in the series on Coniophora cerebella (Coniophora cerebella, read-out: Qb (concentration of compound B, which represents the MIC)) it was 2000 mg/L; in the series with Coniophora cerebella (agar culture media), 2000 mg/L; in the series with Chaetomium globosum (Chaetomium globosum, read-out: Qb (concentration of compound B, which represents the MIC)), 0.4 mg/L; with Chaetomium globosum (agar culture media), 0,4 mg/l. In addition, the “X (synergism index by Kull et al)” value in the series on Aspergillus niger, in the series with Pullularia pullulans, in the series with Alternaria tenuis, in the series on Trichoderma viride, in the series with Coniophora cerebella and in the series on Chaetomium globosum was 1 throughout.

For the compound `[Na+].[O-]c1c(Cl)c(Cl)c(Cl)c(Cl)c1Cl` [sodium pentachlorophenolate], in the series on fungus, the discharged air problems result was “disagreable odours, mucosal irritation” and the effluent toxicity entry was “the effluent is toxic to fish”. The LD50 oral in the series with rats is listed as 270 mg/kg. The mould-resistance of paper entry in [1] is reported as “poor mould-resistance”.

Turning to `Oc1ccccc1-c1ccccc1` [A/B 100/0 (Example 6), 2-hydroxy-diphenyl], the “QA (amount of compound A in the concentration of A/B which prevents the growth of microbes)” value is listed as 50 in the series on Aspergillus niger (setting [3]); 50 in the series on Pullularia pullulans (setting [3]); 75 in the series on Trichoderma viride (setting [3]); 50 in the series with Coniophora cerebella (setting [3]); 50 with Chaetomium globosum (setting [3]). Moreover, the MIC in the series with Aspergillus niger (Aspergillus niger, read-out: Qa (concentration of compound A, which represents the MIC)) was determined as 50 mg/L; with Aspergillus niger (agar culture media) it was 50 mg/L; in the series on Pullularia pullulans (agar culture media), 50 mg/L; in the series on Pullularia pullulans (read-out: Qa (concentration of compound A, which represents the MIC)), 50 mg/L; in the series on Trichoderma viride (Trichoderma viride, read-out: Qa (concentration of compound A, which represents the MIC)), 75 mg/L; in the series with Trichoderma viride (agar culture media), 75 mg/L. Also, the MIC in the series on Coniophora cerebella (Coniophora cerebella, read-out: Qa (concentration of compound A, which represents the MIC)) was found to be 50 mg/L; in the series with Coniophora cerebella (agar culture media) it was 50 mg/L; in the series on Chaetomium globosum (Chaetomium globosum, read-out: Qa (concentration of compound A, which represents the MIC)), 50 mg/L; in the series with Chaetomium globosum (agar culture media), 50 mg/L. In addition, the “X (synergism index by Kull et al)” value in the series on Aspergillus niger, in the series on Pullularia pullulans, in the series on Trichoderma viride, in the series on Coniophora cerebella and in the series with Chaetomium globosum was 1 in each case.

For the compound `Oc1ccc(Cl)cc1Cc1cc(Cl)ccc1O` [A/B 100/0 (Example 1), (2,2'-dihydroxy-5,5'-dichloro)-diphenyl-methane], the “QA (amount of compound A in the concentration of A/B which prevents the growth of microbes)” value in the series with Aspergillus niger (setting [3]) was 20; with Pullularia pullulans (setting [3]) it was 20; in the series with Alternaria tenuis it was 20; with Trichoderma viride (setting [3]), 50; in the series on Coniophora cerebella (setting [3]) it was 10; with Chaetomium globosum (setting [3]) it was 50. Also, the MIC worked out at 20 mg/L in the series with Aspergillus niger (Aspergillus niger, A differs between Example 1 and Example 6, read-out: Qa (concentration of compound A, which represents the MIC)); 20 mg/L with Aspergillus niger (agar culture media); 20 mg/L with Pullularia pullulans (A differs between Example 1 and Example 6, read-out: Qa (concentration of compound A, which represents the MIC)); 20 mg/L in the series with Pullularia pullulans (agar culture media); 20 mg/L in the series on Alternaria tenuis (Alternaria alternata, read-out: Qa (concentration of compound A, which represents the MIC)); 20 mg/L in the series with Alternaria tenuis (agar culture media). Besides, the MIC was 50 mg/L in the series on Trichoderma viride (Trichoderma viride, A differs between Example 1 and Example 6, read-out: Qa (concentration of compound A, which represents the MIC)); 50 mg/L in the series with Trichoderma viride (agar culture media); 10 mg/L in the series on Coniophora cerebella (Coniophora cerebella, A differs between Example 1 and Example 6, read-out: Qa (concentration of compound A, which represents the MIC)); 10 mg/L with Coniophora cerebella (agar culture media); 50 mg/L with Chaetomium globosum (Chaetomium globosum, A differs between Example 1 and Example 6, read-out: Qa (concentration of compound A, which represents the MIC)); 50 mg/L with Chaetomium globosum (agar culture media). In addition, the “X (synergism index by Kull et al)” value in the series on Aspergillus niger, with Pullularia pullulans, with Alternaria tenuis, in the series on Trichoderma viride, in the series with Coniophora cerebella and in the series with Chaetomium globosum was 1 in each case.

Consider `CN1CSC(=S)N(C)C1` [3,5-dimethyl-tetrahydro-1,3,5-thiadiazine-2-thione], for which the stability entry in series [2] was “only moderately stable”.
